Data set [1] concerns Liver microsome. The data set can be described thus: Metabolic stability in human liver microsomes. Type of data set: ADME. For orientation: Liver microsomes are vesicles of endoplasmic reticulum, rich in cytochrome P450 enzymes.
Data set [2] in a line: Metabolic stability in mouse liver microsomes. The data set is classed as ADME.
The subject of data set [3] is Liver microsome. The data set can be described thus: Metabolic stability in rat liver microsomes. The data set is classed as ADME.
Data set [4] is described as follows: Permeability across human Caco2 cells. The data set is classed as ADME, cell-based. Particulars: Caco-2, read-out: permeability.
Data set [5] is described as follows: Oral bioavailability in rat. Type of data set: ADME, organism-based. Particulars: in vivo.
A short description of data set [6]: Cmax in rat plasma at 10 mg/kg, po administered as single dose. Type of data set: ADME, organism-based. Details: dose 10 mg/kg, route oral.
The nature of data set [7]: Cmax in rat liver at 10 mg/kg, po administered as single dose. The data set is classed as ADME, organism-based. Also noted: dose 10 mg/kg, route oral.
Data set [8] is described as follows: Cmax in rat small intestine at 10 mg/kg, po administered as single dose. Type of data set: ADME, organism-based. Also noted: dose 10 mg/kg, route oral.
Data set [9] in a line: Cmax in rat heart at 10 mg/kg, po administered as single dose. Type of data set: ADME, organism-based. Details: dose 10 mg/kg, route oral.
A short description of data set [10]: Cmax in rat brain at 10 mg/kg, po administered as single dose. Type of data set: ADME, organism-based. Also noted: dose 10 mg/kg, route oral.
A short description of data set [11]: Half life in rat plasma at 10 mg/kg, po administered as single dose. The data set is classed as ADME, organism-based.
Data set [12] is described as follows: Tmax in rat at 10 mg/kg, po administered as single dose. Type of data set: ADME, organism-based. Particulars: in vivo.

Structures are written as SMILES.

As to `O=C(Nc1nnc(Cc2cc(F)cc(F)c2)s1)c1ccc(O[C@H]2CC[C@H](C(=O)O)CC2)cc1`, the Stability with Liver microsome [1] turned out to be 1%; in [2], 9%; in the data set with Liver microsome [3] it was 8%. Besides, in data set [4], the Papp worked out at 3 ×10⁻⁶ cm/s.

With `O=C(Nc1nc(Cc2ccccc2)no1)c1ccc(O[C@H]2CC[C@@H](C(=O)O)CC2)cc1`, the Stability with Liver microsome [1] is given as 2%; in data set [2], 100%; in the data set on Liver microsome [3], 53%. The Papp in [4] amounted to 2.9 ×10⁻⁶ cm/s.

As for `O=C(Nc1nnc(Cc2ccccc2)s1)c1ccc(O[C@H]2CC[C@@H](C(=O)O)CC2)nc1`, the values for the Stability (in the data set on Liver microsome [1]; in [2]; in the data set with Liver microsome [3]) were 1%, 23% and 37%, respectively. The Papp in [4] came to 1.1 ×10⁻⁶ cm/s.

`O=C(O)C[C@H]1CC[C@H](c2ccc(C(=O)Nc3nnc(COC4CCCC4)s3)cc2)CC1`: the Stability in the data set with Liver microsome [1] was 3%; in [2] it was 0%; with Liver microsome [3], 0%. Moreover, the Papp in data set [4] was found to be 10.3 ×10⁻⁶ cm/s.

On to `O=C(O)C[C@H]1CC[C@H](c2ccc(C(=O)Nc3nnc(CCC4CCCO4)s3)cc2)CC1` (stereo not given in full), for which the Stability turned out to be 9% in the data set on Liver microsome [1], 8% in data set [2] and 3% in the data set on Liver microsome [3]. The Papp in data set [4] is 7.2 ×10⁻⁶ cm/s.

As for `O=C(Nc1nnc(Cc2cc(F)cc(F)c2)s1)c1ccc(O[C@H]2CC[C@@H](C(=O)O)CC2)cc1`, the Stability came out at 1% in the data set on Liver microsome [1], 42% in data set [2] and 9% in the data set with Liver microsome [3]. For the same compound, the Papp in data set [4] is 2.9 ×10⁻⁶ cm/s. Besides, the bioavailability – broadly, the share of a dose that reaches the circulation, judged against a reference dose that is usually intravenous – in data set [5] was found to be 4%.

Take `O=C(Nc1nnc(Cc2cccc(Cl)c2)s1)c1ccc(O[C@H]2CC[C@@H](C(=O)O)CC2)nc1`: the Stability is given as 2% in the data set with Liver microsome [1], 56% in data set [2] and 27% in the data set on Liver microsome [3]. The Papp in data set [4] amounted to 1.7 ×10⁻⁶ cm/s.

In the case of `O=C(Nc1nnc(Nc2ccccc2)s1)c1ccc(O[C@H]2CC[C@@H](C(=O)O)CC2)cc1`, the Stability with Liver microsome [1] came out at 11%; in data set [2] it was 8%; with Liver microsome [3], 4%. The Papp in data set [4] came to 0.6 ×10⁻⁶ cm/s.

Turning to `O=C(Nc1nnc(NC2CCCC2)s1)c1ccc(O[C@H]2CC[C@@H](C(=O)O)CC2)cc1`, the Stability came out at 2% in the data set on Liver microsome [1], 3% in [2] and 4% in the data set with Liver microsome [3]. In addition, in data set [4], the Papp stood at 0.6 ×10⁻⁶ cm/s.

`O=C(Nc1nnc(Cc2ccccc2)s1)c1ccc(O[C@H]2CC[C@@H](C(=O)O)CC2)cc1`: the Stability in the data set on Liver microsome [1] came out at 3%; in data set [2], 27%; with Liver microsome [3] it was 22%. Moreover, the Papp in data set [4] worked out at 1.5 ×10⁻⁶ cm/s.

Take `O=C(O)C[C@H]1CC[C@H](c2ccc(C(=O)Nc3nnc(Cc4ccccc4)s3)cc2)CC1`: the Stability in the data set with Liver microsome [1] was found to be 0%; in data set [2] it was 5%; with Liver microsome [3] it was 11%.

As to `O=C(Nc1nnc(COC2CCCC2)s1)c1ccc(O[C@H]2CC[C@@H](C(=O)O)CC2)cc1`, the Stability came out at 5% with Liver microsome [1], 8% in data set [2] and 1% in the data set with Liver microsome [3]. The Papp in [4] turned out to be 4.1 ×10⁻⁶ cm/s.

`O=C(Nc1nc(Cc2cc(F)cc(F)c2)no1)c1ccc(O[C@H]2CC[C@@H](C(=O)O)CC2)cc1`: the values for the Stability (with Liver microsome [1]; in data set [2]; in the data set on Liver microsome [3]) were 1%, 99% and 61%, respectively. For the same compound, the Papp in [4] was 0.9 ×10⁻⁶ cm/s.

`NCCCC[C@H](N)C(=O)O.O=C(Nc1nnc(Cc2cc(F)cc(F)c2)s1)c1ccc(O[C@H]2CC[C@@H](C(=O)O)CC2)cc1` had a bioavailability in [5] of 40%. Further, the maximum concentration (Cmax) – broadly, the highest concentration seen after dosing – in data set [6] amounted to 13.2 µM; in [7], 248 µM; in [8], 14.3 µM; in [9], 4.2 µM; in data set [10], 0.16 µM. The half-life (in general, the time in which the quantity being followed falls by half) in data set [11] is 7.4 h. In addition, the Tmax (in general, the time from dosing to the highest level) in data set [12] was 4 h.
